Literature values, collected in patent US8962010B2, “Intravaginal drug delivery devices for the delivery of macromolecules and water-soluble drugs” (Warner Chilcott Company, LLC, priority 2007, dated 2015).

Details: pH 5

water solubility: more than 20 % w/w
SMILES: CCN(Cc1cccc(S(=O)(=O)[O-])c1)c1ccc(C(=C2C=CC(=[N+](CC)Cc3cccc(S(=O)(=O)[O-])c3)C=C2)c2ccccc2S(=O)(=O)[O-])cc1.[Na+].[Na+] [Erioglaucine]
